Laboratory results as given in US20150190456A1, “USE OF CASPASE 3 ACTIVITY AND ITS INHIBITORS” (THE REGENTS OF THE UNIVERSITY OF COLORADO, priority 2011, published 2015).

What was measured:
[1] = test system: tumor cells; test: Growth in mice of a small number of tumor cells pre-treated with PGE2; format: in vivo; conditions: about 1000 tumor cells treated with PGE2 versus non-treated cells
Protocol: (§1) Growth of Fluc-labeled tumor cells in vivo was followed through non-invasive bioluminescence imaging using the IVIS200 instrument (Caliper Life Sciences, Hopkinton, Mass). Mice to be imaged were injected with 150 mg/kg of D-luciferin (obtained from Caliper Life Sciences) intraperitoneally in 200 μl of PBS and then anesthetized with continuous flow of isofluorane. Imaging of the mice was carried out 10 minutes later. The time between injection and imaging were kept constant among different batches of mice.
(§2) Different approaches were used to establish tumor growth than traditionally adopted by other studies. In most of the studies by the present inventors, a very small number of Fluc-labeled tumor cells (500-1000 cells each) was injected either alone or together with other unlabeled cells (either tumor cells or fibroblast cells) that are either irradiated or un-irradiated. Tumor growth from these cells was monitored through the quantification of bioluminescence signals emitted from labeled tumor cells using IVIS200 instrument following manufacturer's instructions. In some cases, 500-1000 Fluc labeled tumor cells were injected into (7-9 mm in diameter) tumors that have been established from unlabeled tumor cells.

[2] = test system: 4T1 cells; test: Growth of tumor cells injected intratumorally into established tumors in mice, 4T1; format: in vivo, mouse; conditions: indomethacin administration
Protocol: as §1
as §2, with “cells. […]” for “cells.”

[3] = test system: HCT116 cells; test: Growth of tumor cells injected intratumorally into established tumors in mice, HCT116; format: in vivo, human; conditions: indomethacin administration
Protocol: as §1
as §2, with “cells. […]” for “cells.”

## CCCCC[C@H](O)/C=C/[C@H]1[C@H](O)CC(=O)[C@@H]1C/C=C\CCCC(=O)O [PGE2, prostaglandin E2]
[1]
  growth of treated tumor cells when injected into mice: grow at a faster pace than non-treated cells

## COc1ccc2c(c1)c(CC(=O)O)c(C)n2C(=O)c1ccc(Cl)cc1 [indomethacin]
[2]
  growth of intratumorally injected 4T1 cells: effectively suppressed growth
[3]
  growth of intratumorally injected HCT116 cells: effectively suppressed growth
